In patent publication US12691095B2, “Modulators of TNF-alpha activity” (Forward Therapeutics, Inc., priority 2024, dated 2026):

Tests used:
TNF-α [1] = molecular target: T1, TNF-α (Homo sapiens, UniProt P01375); test: TNF-α Induced HEK Blue Cellular Assay; type: cell-based; details: HEK Blue TNFα reporter cells stimulated with TNF-α, 24 hrs, secreted alkaline phosphatase (QUANTI-Blue, 620 nm)
T1 construct: purchased R&D 210-TA-020/CF
Protocol: (§1) Test articles were diluted in DMSO and serially diluted into 384 well assay plate (Corning 3765), at final concentrations ranging from […] to 0.5 nM. HEK Blue™ TNFα reporter cells were added at a final density of 10,000 cell per well in assay media [DMEM (Gibco, cat #21063-029), 10% fetal bovine serum (ExcelBio, cat #FND500), 1% Penicillin-Streptomycin (Solarbio, cat #P1400-100]. TNF-α (R&D 210-TA-020/CF) was then added to the assay plate at a final concentration of […]. This plate was then incubated for 24 hrs at 37° C. and 5% CO2. Secreted alkaline phosphatase expression was then measured using QUANTI- Blue™ (Invivogen), according to manufacturer instructions and read on an Envision microplate reader at 620 nm.
(§2) Inhibition data for test compound over a range of concentration was plotted as percentage inhibition of the test compound (100%=maximum inhibition). IC50 values were determined after correcting for background [(sample read-mean of low control)/(mean of high control-mean of low control)] where by the low control is DMSO without stimulation and high control is DMSO with stimulation. The IC50 is defined as the concentration of test compound which produces 50% inhibition and was quantified using the 4 parameter logistic equation to fit the data.

TNF-α [2] = molecular target: T1, TNF-α; test: TNF-α Induced THP 1 dual Cellular Assay; type: cell-based; details: THP1 dual cell reporter cells stimulated with TNF-α, 24 hrs, secreted alkaline phosphatase (QUANTI-Blue, 620 nm)
Protocol: as §1, with “THP1 dual cell” for “HEK Blue™ TNFα”, “QUANTI-Blue™” for “QUANTI- Blue™”
as §2, with “whereby” for “where by”, “4-parameter” for “4 parameter”

T1 sequence (P01375 77-233 limits assumed): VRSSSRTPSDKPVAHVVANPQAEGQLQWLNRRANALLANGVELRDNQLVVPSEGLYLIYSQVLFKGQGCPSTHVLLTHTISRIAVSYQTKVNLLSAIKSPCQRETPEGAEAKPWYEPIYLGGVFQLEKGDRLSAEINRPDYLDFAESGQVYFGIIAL

IC50 (TNF-α [1]) | IC50 (TNF-α [2]) | Compound
≤ 100 nM |  | [2H]C([2H])([2H])N1C(=O)c2cccc(Cl)c2[C@H]2C[C@@H]1c1nc3ccc(-c4ccc(P(C)(C)=O)cc4F)cc3n12 [Example 8, (7R,14R)-1-chloro-11-(4-(dimethylphosphoryl)-2-fluorophenyl)-6-(methyl-d3)-6,7-dihydro-7,14-methanobenzo[f]benzo[4,5]imidazo[1,2-a][1,4]diazocin-5(14H)-one]
≤ 100 nM |  | [2H]C([2H])([2H])N1C(=O)c2cccc(F)c2[C@H]2C[C@@H]1c1nc3ccc(-c4ccc(P(C)(C)=O)c(F)c4)cc3n12 [Example 9, (7R,14R)-11-(4-(dimethylphosphoryl)-3-fluorophenyl)-1-fluoro-6-(methyl-d3)-6,7-dihydro-7,14-methanobenzo[f]benzo[4,5]imidazo[1,2-a][1,4]diazocin-5(14H)-one]
≤ 100 nM |  | [2H]C([2H])([2H])C([2H])([2H])N1C(=O)c2cccc(Cl)c2[C@H]2C[C@@H]1c1nc3ccc(-c4ccc(P(C)(C)=O)c(F)c4)cc3n12 [Example 10, (7R,14R)-1-chloro-11-(4-(dimethylphosphoryl)-3-fluorophenyl)-6-(ethyl-d5)-6,7-dihydro-7,14-methanobenzo[f]benzo[4,5]imidazo[1,2-a][1,4]diazocin-5(14H)-one]
≤ 100 nM |  | CCN1C(=O)c2cccc(Cl)c2[C@H]2C[C@@H]1c1nc3ccc(-c4ccc(P(C)(C)=O)c(F)c4)cc3n12 [Example 11, (7R,14R)-1-chloro-11-(4-(dimethylphosphoryl)-3-fluorophenyl)-6-ethyl-6,7-dihydro-7,14-methanobenzo[f]benzo[4,5]imidazo[1,2-a][1,4]diazocin-5(14H)-one]
≤ 100 nM | ≤ 100 nM | [2H]C([2H])([2H])N1C(=O)c2cccc(F)c2[C@H]2C[C@@H]1c1nc3ccc(-c4cc(F)c(P(C)(C)=O)cc4F)cc3n12 [Example 12, (7R,14R)-11-(4-(dimethylphosphoryl)-2,5-difluorophenyl)-1-fluoro-6-(methyl-d3)-6,7-dihydro-7,14-methanobenzo[f]benzo[4,5]imidazo[1,2-a][1,4]diazocin-5(14H)-one]
